{
  "source": "patent US8329645B2",
  "about": "“Polymyxin derivatives and uses thereof” (priority 2008, dated 2012)",
  "key": {"A. baumannii F264": {"tested_on": "A. baumannii F264", "assay": "E-test MIC of antibiotics on Mueller Hinton agar containing increasing concentrations of NAB739", "format": "cell-based, Acinetobacter baumannii"}, "P. mirabilis ATCC29906": {"tested_on": "P. mirabilis ATCC29906", "assay": "E-test MIC with or without NAB7061 (4 μg/ml), Mueller-Hinton agar", "format": "cell-based, Proteus mirabilis", "method": "(§1) MICs were determined by using E-strips (Biodisk Ltd., Solna, Sweden) according to the manufacturer's instructions.\n(§2) The strains originated from ATCC (11 strains), CCUG (11 strains), and NCTC (The National Collection of Type Cultures, Colindale, U.K.; 2 strains). Eight strains (the F-strains) were purchased from Mobidiag Ltd., Helsinki, Finland."}, "P. aeruginosa ATCC 27853": {"tested_on": "P. aeruginosa ATCC 27853", "assay": "E-test MIC of antibiotics on Mueller Hinton agar containing increasing concentrations of NAB739", "format": "cell-based, Pseudomonas aeruginosa"}, "P. aeruginosa ATCC27853": {"tested_on": "P. aeruginosa ATCC27853", "assay": "E-test MIC with or without NAB7061 (4 μg/ml), Mueller-Hinton agar", "format": "cell-based, Pseudomonas aeruginosa", "method": "as §1, §2"}, "P. aeruginosa F58": {"tested_on": "P. aeruginosa F58", "assay": "E-test MIC with or without NAB7061 (4 μg/ml), Mueller-Hinton agar", "format": "cell-based, Pseudomonas aeruginosa", "method": "as §1, §2"}, "P. aeruginosa CCUG51971": {"tested_on": "P. aeruginosa CCUG51971", "assay": "E-test MIC with or without NAB7061 (4 μg/ml), Mueller-Hinton agar", "format": "cell-based, Pseudomonas aeruginosa", "method": "as §1, §2"}, "S. maltophilia ATCC17444": {"tested_on": "S. maltophilia ATCC17444", "assay": "E-test MIC with or without NAB7061 (4 μg/ml), Mueller-Hinton agar", "format": "cell-based", "method": "as §1, §2"}, "P. vulgaris ATCC13315": {"tested_on": "P. vulgaris ATCC13315", "assay": "E-test MIC with or without NAB7061 (4 μg/ml), Mueller-Hinton agar", "format": "cell-based", "method": "as §1, §2"}, "E. coli IH3080": {"tested_on": "E. coli IH3080", "assay": "E-test MIC with or without NAB7061 (4 μg/ml), Mueller-Hinton agar", "format": "cell-based, Escherichia coli", "outline": "(§3)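 Strips carrying an antibiotic concentration gradient were placed on inoculated plates following the supplier's directions, and the MIC was then recorded.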"}, "E. coli CCUG41422": {"tested_on": "E. coli CCUG41422", "assay": "E-test MIC with or without NAB7061 (4 μg/ml), Mueller-Hinton agar", "format": "cell-based, Escherichia coli", "outline": "as §3"}, "E. coli CCUG41425": {"tested_on": "E. coli CCUG41425", "assay": "E-test MIC with or without NAB7061 (4 μg/ml), Mueller-Hinton agar", "format": "cell-based, Escherichia coli", "outline": "as §3"}, "E. coli CCUG41427": {"tested_on": "E. coli CCUG41427", "assay": "E-test MIC with or without NAB7061 (4 μg/ml), Mueller-Hinton agar", "format": "cell-based, Escherichia coli", "outline": "as §3"}, "E. coli CCUG41429": {"tested_on": "E. coli CCUG41429", "assay": "E-test MIC with or without NAB7061 (4 μg/ml), Mueller-Hinton agar", "format": "cell-based, Escherichia coli", "outline": "as §3"}, "E. coli CCUG41424": {"tested_on": "E. coli CCUG41424", "assay": "E-test MIC with or without NAB7061 (4 μg/ml), Mueller-Hinton agar", "format": "cell-based, Escherichia coli", "outline": "as §3"}, "E. coli CCUG41432": {"tested_on": "E. coli CCUG41432", "assay": "E-test MIC with or without NAB7061 (4 μg/ml), Mueller-Hinton agar", "format": "cell-based, Escherichia coli", "outline": "as §3"}, "E. coli CCUG41421": {"tested_on": "E. coli CCUG41421", "assay": "E-test MIC with or without NAB7061 (4 μg/ml), Mueller-Hinton agar", "format": "cell-based, Escherichia coli", "outline": "as §3"}, "E. coli NCTC13353": {"tested_on": "E. coli NCTC13353", "assay": "E-test MIC with or without NAB7061 (4 μg/ml), Mueller-Hinton agar", "format": "cell-based, Escherichia coli", "outline": "as §3"}, "E. coli NCTC13351": {"tested_on": "E. coli NCTC13351", "assay": "E-test MIC with or without NAB7061 (4 μg/ml), Mueller-Hinton agar", "format": "cell-based, Escherichia coli", "outline": "as §3"}},
  "data": [
    {"smiles": "CO[C@H]1/C=C/O[C@@]2(C)Oc3c(C)c(O)c4c(O)c(c(/C=N/N5CCN(C)CC5)c(O)c4c3C2=O)NC(=O)/C(C)=C\\C=C\\[C@H](C)[C@H](O)[C@@H](C)[C@@H](O)[C@@H](C)[C@H](OC(C)=O)[C@@H]1C", "note": "[Rifampin]", "values": [
      {"measurement": "MIC of antibiotic in the presence of NAB739", "setting": "A. baumannii F264; NAB 739 0 μg/ml", "result": 12, "unit": "µg/mL"},
      {"measurement": "MIC of antibiotic in the presence of NAB739", "setting": "A. baumannii F264; NAB 739 0.5 μg/ml", "result": 0.094, "unit": "µg/mL"},
      {"measurement": "MIC of antibiotic in the presence of NAB739", "setting": "A. baumannii F264; NAB 739 1 μg/ml", "result": 0.016, "unit": "µg/mL"},
      {"measurement": "MIC of antibiotic in the presence of NAB739", "setting": "A. baumannii F264; NAB 739 […]", "result": 0.38, "unit": "µg/mL"},
      {"measurement": "MIC of antibiotic in the presence of 4 μg/ml of NAB 7061", "setting": "P. mirabilis ATCC29906", "result": "1 to 6", "unit": "µg/mL"},
      {"measurement": "Sensitization factor to antibiotic (MIC without / with 4 μg/ml of NAB 7061)", "setting": "P. mirabilis ATCC29906", "result": "<2"},
      {"measurement": "MIC of antibiotic in the presence of NAB739", "setting": "P. aeruginosa ATCC 27853; NAB 739 0 μg/ml", "result": 32, "unit": "µg/mL"},
      {"measurement": "MIC of antibiotic in the presence of NAB739", "setting": "P. aeruginosa ATCC 27853; NAB 739 0.5 μg/ml", "result": 32, "unit": "µg/mL"},
      {"measurement": "MIC of antibiotic in the presence of NAB739", "setting": "P. aeruginosa ATCC 27853; NAB 739 1 μg/ml", "result": 16, "unit": "µg/mL"},
      {"measurement": "MIC of antibiotic in the presence of NAB739", "setting": "P. aeruginosa ATCC 27853; NAB 739 2 μg/ml", "result": 4, "unit": "µg/mL"},
      {"measurement": "MIC of antibiotic in the presence of NAB739", "setting": "P. aeruginosa ATCC 27853; NAB 739 […]", "result": 32, "unit": "µg/mL"},
      {"measurement": "MIC of antibiotic in the presence of 4 μg/ml of NAB 7061", "setting": "P. aeruginosa ATCC27853", "result": "12 to 16", "unit": "µg/mL"},
      {"measurement": "Sensitization factor to antibiotic (MIC without / with 4 μg/ml of NAB 7061)", "setting": "P. aeruginosa ATCC27853", "result": 2},
      {"measurement": "MIC of antibiotic in the presence of 4 μg/ml of NAB 7061", "setting": "P. aeruginosa F58", "result": ">32", "unit": "µg/mL"},
      {"measurement": "Sensitization factor to antibiotic (MIC without / with 4 μg/ml of NAB 7061)", "setting": "P. aeruginosa F58", "result": "<2"},
      {"measurement": "MIC of antibiotic in the presence of 4 μg/ml of NAB 7061", "setting": "P. aeruginosa CCUG51971", "result": ">32", "unit": "µg/mL"},
      {"measurement": "Sensitization factor to antibiotic (MIC without / with 4 μg/ml of NAB 7061)", "setting": "P. aeruginosa CCUG51971", "result": "<2"},
      {"measurement": "MIC of antibiotic in the presence of 4 μg/ml of NAB 7061", "setting": "S. maltophilia ATCC17444", "result": 2, "unit": "µg/mL"},
      {"measurement": "Sensitization factor to antibiotic (MIC without / with 4 μg/ml of NAB 7061)", "setting": "S. maltophilia ATCC17444", "result": "4-8"},
      {"measurement": "MIC of antibiotic in the presence of 4 μg/ml of NAB 7061", "setting": "P. vulgaris ATCC13315", "result": "1 to 1.5", "unit": "µg/mL"},
      {"measurement": "Sensitization factor to antibiotic (MIC without / with 4 μg/ml of NAB 7061)", "setting": "P. vulgaris ATCC13315", "result": "<2"},
      {"measurement": "MIC of antibiotic in the presence of 4 μg/ml of NAB 7061", "setting": "E. coli IH3080", "result": "0.023 to 0.047", "unit": "µg/mL"},
      {"measurement": "Sensitization factor to antibiotic (MIC without / with 4 μg/ml of NAB 7061)", "setting": "E. coli IH3080", "result": "170-350"},
      {"measurement": "Sensitization factor to antibiotic (MIC without / with 4 μg/ml of NAB 7061)", "setting": "E. coli CCUG41422", "result": "170-256"},
      {"measurement": "MIC of antibiotic in the presence of 4 μg/ml of NAB 7061", "setting": "E. coli CCUG41425", "result": "0.016 to 0.023", "unit": "µg/mL"},
      {"measurement": "Sensitization factor to antibiotic (MIC without / with 4 μg/ml of NAB 7061)", "setting": "E. coli CCUG41425", "result": "200-260"},
      {"measurement": "MIC of antibiotic in the presence of 4 μg/ml of NAB 7061", "setting": "E. coli CCUG41427", "result": "0.032 to 0.064", "unit": "µg/mL"},
      {"measurement": "Sensitization factor to antibiotic (MIC without / with 4 μg/ml of NAB 7061)", "setting": "E. coli CCUG41427", "result": "100-250"},
      {"measurement": "MIC of antibiotic in the presence of 4 μg/ml of NAB 7061", "setting": "E. coli CCUG41429", "result": 0.032, "unit": "µg/mL"},
      {"measurement": "MIC of antibiotic in the presence of 4 μg/ml of NAB 7061", "setting": "E. coli CCUG41424", "result": "0.064 to 0.094", "unit": "µg/mL"},
      {"measurement": "Sensitization factor to antibiotic (MIC without / with 4 μg/ml of NAB 7061)", "setting": "E. coli CCUG41424", "result": "85-94"},
      {"measurement": "MIC of antibiotic in the presence of 4 μg/ml of NAB 7061", "setting": "E. coli CCUG41432", "result": 0.032, "unit": "µg/mL"},
      {"measurement": "Sensitization factor to antibiotic (MIC without / with 4 μg/ml of NAB 7061)", "setting": "E. coli CCUG41432", "result": "180-250"},
      {"measurement": "MIC of antibiotic in the presence of 4 μg/ml of NAB 7061", "setting": "E. coli CCUG41421", "result": "0.032 to 0.064", "unit": "µg/mL"},
      {"measurement": "MIC of antibiotic in the presence of 4 μg/ml of NAB 7061", "setting": "E. coli NCTC13353", "result": 0.064, "unit": "µg/mL"},
      {"measurement": "MIC of antibiotic in the presence of 4 μg/ml of NAB 7061", "setting": "E. coli NCTC13351", "result": "0.032 to 0.047", "unit": "µg/mL"}
    ]}
  ]
}
